Reference: the supplement of paper PMC10307832

compound: CC1(C)CCC(CN2CCN(c3ccc(C(=O)NS(=O)(=O)c4ccc(NCC5CCOCC5)c([N+](=O)[O-])c4)c(Oc4cnc5[nH]ccc5c4)c3)CC2)=C(c2ccc(Cl)cc2)C1 [Venetoclax] + C[C@]1(O)C[C@@H](c2nc(-c3ccc4ccc(-c5ccccc5)nc4c3)c3c(N)nccn32)C1 [Linsitinib] (partner 1 µM); assay: relative viability (nuclei count vs DMSO), 5 days (fraction); higher = more cells survive; conditions: first compound 0.1 µM
Method in brief: (§1)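 Cells from lung cancer lines were seeded into 1536-well plates and, one day later, dosed by pin tool. Treatments were either a single drug or a fixed dose of an anchor drug with five library-drug doses (not always all listed) in √10 steps. After 5 days, nuclei were stained in a one-step fixation (final 0.05% Triton X-100, 1% formaldehyde, 1 ug/ml Hoechst) and counted on 4× images, and relative viability is the treated-to-vehicle nuclei ratio, as the median of duplicate plates.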

Cell Line	relative viability
NCI-H1395	1.04
NCI-H1703	0.81
NCI-H441	0.568
NCI-H1793	0.692
LCLC-103H	1.16

same assay, conditions: first compound 0.3162 µM

Cell Line	relative viability
PC-14	0.818
NCI-H1666	0.759
EBC-1	0.837
NCI-H1755	0.964
NCI-H2023	0.682
EPLC-272H	1.45
LCLC-97TM1	0.182
PC-3 [JPC-3]	0.938
LOU-NH91	0.975
NCI-H647	1.4
NCI-H23	0.467
EMC-BAC-2	0.814
NCI-H2126	0.741
Calu-6	0.901
HCC-44	0.664
NCI-H1734	0.855

Cell Line	relative viability
NCI-H650	1.04
LK-2	0.548
NCI-H2228	0.724
SK-MES-1	1.06
HARA	0.927
COR-L23	0.897
COR-L 105	0.81
LC-2-ad	0.848
IA-LM	0.418
A549	0.568
NCI-H1299	0.926
NCI-H1395	1.25
NCI-H1703	0.756
NCI-H441	0.482
NCI-H1793	0.818
LCLC-103H	1.13

same assay, conditions: first compound 1 µM

Cell Line	relative viability
PC-14	0.811
NCI-H1666	0.745
EBC-1	0.786
NCI-H1755	0.969
NCI-H2023	0.678
EPLC-272H	1.07
LCLC-97TM1	0.198
PC-3 [JPC-3]	0.949
LOU-NH91	0.895
NCI-H647	1.02
NCI-H23	0.533
EMC-BAC-2	0.787
NCI-H2126	0.689
Calu-6	0.896
HCC-44	0.609
NCI-H1734	0.865

Cell Line	relative viability
NCI-H650	0.754
LK-2	0.551
NCI-H2228	0.625
SK-MES-1	0.963
HARA	0.928
COR-L23	0.815
COR-L 105	0.871
LC-2-ad	0.798
IA-LM	0.403
A549	0.558
NCI-H1299	0.936
NCI-H1395	1.11
NCI-H1703	0.755
NCI-H441	0.511
NCI-H1793	0.778
LCLC-103H	0.989

compound: CC1(C)CCC(CN2CCN(c3ccc(C(=O)NS(=O)(=O)c4ccc(NCC5CCOCC5)c([N+](=O)[O-])c4)c(Oc4cnc5[nH]ccc5c4)c3)CC2)=C(c2ccc(Cl)cc2)C1 [Venetoclax] + C[C@@H](Oc1cc(-c2cnn(C3CCNCC3)c2)cnc1N)c1c(Cl)ccc(F)c1Cl [Crizotinib] (partner 1 µM); assay: as above; conditions: first compound 0.01 µM
Method in brief: as §1

Cell Line	relative viability
PC-14	0.844
NCI-H1666	0.94
EBC-1	0.213
NCI-H1755	0.769
NCI-H2023	0.541
PC-3 [JPC-3]	0.896
LOU-NH91	0.751
